The text below walks through data of patent US20260355318A1, “MOLECULAR MACHINES FOR TREATMENT OF CANCER, FUNGAL INFECTIONS, OR BACTERIAL INFECTIONS” (priority 2022, published 2026).

In brackets after ≈: the same amount, converted by molar mass.

In experiment [1] the test system is S. aureus. Kind of experiment: MIC, S. aureus. The format is cell-based, Staphylococcus aureus. The settings on record: Staphylococcus aureus, read-out: Antibiotic MIC. The procedure: (§1) The appropriate volume of an MM stock at 8 mM necessary to achieve a concentration ranging from 0.3125 to 40 μM was pipetted into a 2 mL microcentrifuge tube to which 1 mL of cell suspension prepared as previously described was added. Corresponding negative controls (DMSO only) were prepared in the same way. The mixture was gently mixed by pipetting and incubated in the dark at 30 or 37 ° C, depending on the strain, for 30 min with agitation (220 rpm). Afterward, MM- or DMSO-treated cells were dispensed in one well of a 24-well plate positioned in the center of the light beam (405 nm LED Light, Prizmatix, UHP—F-5-405) placed at the appropriate distance necessary to achieve the desired light intensity of 304 mW cm-2, 146 mW cm2 or 87 mW cm2, as measured with a handheld digital power meter console coupled to an S415C thermal power sensor head (Thorlabs, Newton, MA, USA). The temperature during irradiation was monitored using a thermocouple probe (Model SC-TT-K-30-36-PP; Omega Engineering, Inc., Stanford, CT, USA). Samples were agitated during irradiation. Dark controls were prepared as previously described except that no irradiation was provided.
(§2) For MIC determination, samples treated with a range of concentrations of the different MM, as described above and were irradiated one at a time for 5 min at 146 mW cm^−2 (43.8 J cm^−2), after which irradiated aliquots were collected and inoculated into 1 mL MHB in a 2 mL microcentrifuge tube. Samples were incubated overnight at 30 or 37 ° C, depending on the strain, without agitation. Corresponding non-irradiated samples and negative controls (without bacteria) were also included. The following day, cultures were inspected for growth and the MIC was identified. The experimental procedure used to determine the MIC of visible light-activated MMs is schematically depicted in FIG. 26.

For experiment [2], the system named is S. aureus. As to the kind of experiment: G. mellonella burn wound infection model, S. aureus. The format is in vivo, Galleria mellonella. The settings on record: S. aureus-infected G. mellonella, 1×MIC. The procedure: (§3) Animal studies were conducted in the burn wound model Galleria mellonella recently described (Maslova et al., 2020). […] Larvae were sorted into Petri dishes lined with Whatman filter paper (Fisher Scientific, Pittsburgh, PA) and stored at 4 ° C until use. The larval bodies were sterilized with 70% ethanol. The burn was generated using a soldering iron (Weller WE1010 ESD-Safe Digital 70-Watt Soldering Station, 120V, Weller Company, Easton, PA, USA) to achieve a consistent burn area of ≈2 mm^2 in the middle section of the back of larvae. This location was chosen so the wound could be easily visualized without having to physically manipulate the larvae. Immediately post-burn, the wound was inoculated with 10 μL of 1:10 dilution of an overnight culture of A. baumannii or S. aureus. […] In order to minimize any potential temperature effects, a constant flow of 0.2 μm pore-size-filtered air was provided to the surface of the worm. Dark 1% DMSO controls were also included. The mortality of larvae post-treatment was monitored for up to 7 days. Mortality was recorded by complete melanization of the larval body and complete loss of motility. A brief overview of the protocol is schematically depicted in FIG. 44A. Work in Galleria mellonella was reviewed and approved by the Office of Sponsored Projects and Research Compliance (SPARC) of Rice University.

Experiment [3] has as its system biofilms of P. aeruginosa and S. aureus. As to the kind of experiment: Biofilm total bacterial cell number (acridine orange). The following applies: 2×MIC, vs untreated controls. The format is cell-based, Pseudomonas aeruginosa, Staphylococcus aureus. The procedure:
(§4) This combination of methods is effective at evaluating the antibiofilm potential of chemicals (Stiefel et al., 2016). P. aeruginosa and S. aureus were grown overnight in tryptic soy broth (TSB) medium. The overnight cultures were diluted in 1:100 in fresh media and 100 μL aliquots were distributed in a 96-well plate. After 24 h of static growth at 37 ° C, planktonic cells were removed by inverting the plate onto a stack of paper towels, and the biofilm was washed three times with PBS. After washing, MM 1, MM 5, or MM 6 were added at 2×MIC to the biofilm and incubated statically in the dark for 60 min. The biofilm was then irradiated for 15, 30, or 45 min at 146 mW cm2. For the determination of the total bacterial number, acridine orange solution (2% in H2O) diluted 1:100 in Walpole's buffer (27.2 g L-1 sodium acetate trihydrate, adjusted to pH 4 with glacial acetic acid) was added to the wells.

Experiment [4] has the same test system. As to the kind of experiment: Biofilm metabolically active cells (ATP). In kind it is cell-based, Pseudomonas aeruginosa, Staphylococcus aureus. The following applies: 2×MIC, antibiotics 45 min, MMs 15 min + light, vs untreated. The procedure: as §4
For quantification of viable cells in biofilms, following the addition of 100 μL […] of TSB to each well, bacteria were detached from the biofilm by thorough mixing, after which […] of BacTiter-Glo™ reagent, prepared according to the manufacturer's instructions, was added to each well.

Experiment [5] concerns A. baumannii. As to the kind of experiment: G. mellonella burn wound infection model, A. baumannii. In kind it is in vivo, Galleria mellonella. The following applies: A. baumannii-infected G. mellonella, 1×MIC. The procedure: as §3
In experiment [6] the test system is A. baumannii. As to the kind of experiment: MIC, A. baumannii. In kind it is cell-based, Acinetobacter baumannii. The following applies: A. baumannii, broth microdilution. The procedure:
as §1, §2

Experiment [7] has as its system C. albicans. As to the kind of experiment: MIC, visible-light-activated MMs and conventional antifungals, C. albicans. In kind it is cell-based, Candida albicans (ATCC 18804). The following applies: Candida albicans, read-out: MIC of antifungal agent. In short, it runs like this:
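C. albicans suspensions (~10^4 CFU/mL in saline, CLSI) incubated 30 min in the dark with MMs, then irradiated with stirring at 405 nm, 292 mW cm^−2 for 5 min (87.6 J cm^−2). Cells then grown in MOPS-buffered RPMI 1640 (pH 7.0) at 30 °C for 48 h; MIC is lowest concentration with no visible growth; conventional antifungals tested likewise.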

A further experiment has as its system T. rubrum. As to the kind of experiment: MIC, MMs and antifungals, T. rubrum. The following applies: Trichophyton rubrum, read-out: MIC of antifungal agent. The format is cell-based, Trichophyton rubrum (ATCC 10218). The procedure: Cell suspensions for susceptibility testing (MMs and conventional antifungals) were prepared per the Clinical & Laboratory Standards Institute (CLSI) guidelines (CLSI, 2017; CLSI, 2008). Before testing, yeasts (C. albicans and S. cerevisiae) were sub-cultured in Sabouraud Dextrose Agar-Emmons Modification (SDAE) plates and grown for 24 h at 30 °C. Five independent colonies from 24-h-old plates were collected and diluted to ~10^4 colony forming units (CFU) per mL in sterile saline (CLSI, 2017). Molds (A. fumigatus and the dermatophytes T. rubrum and M. gypseum) were sub-cultured on SDAE medium and incubated for 7 days at 28 °C. Conidia were recovered by covering the plates with sterile distilled water and scraping the colonies. The suspensions were filtered (8-μm pore size) and diluted in saline to ~10^4 CFU mL^−1 (Santos and Hamdan, 2005).
After a 30-min incubation in the dark, cell suspensions were transferred to small, sterilized glass beakers, which were then placed in a water bath. Each sample was irradiated with 405-nm light at 292 mW cm^−2 for 5 min, corresponding to a light dose of 87.6 J cm^−2, determined using an S415C thermal power sensor (Thorlabs, Newton, MA, USA). During irradiation, the cell suspensions were agitated with a small metal stirrer. […]

Experiment [8] relates to C. albicans. Kind of experiment: Influence of BAPTA-AM on MM-induced killing and intracellular calcium. The format is cell-based, Candida albicans. The following applies: MM 1 2×MIC. The procedure:
C. albicans cells were grown as described above and resuspended in HHBS (~10^6 CFU mL^−1). The cation chelator 1,2-bis(2-aminophenoxy) ethane-N,N,N′,N′-tetraacetic acid acetoxymethyl ester (BAPTA-AM) was then added (0.25-1 mM, final concentration) (Li et al., 2020). Unamended cells were used as controls. After a 30-min dark incubation at 30 ° C, the cells were centrifuged (5,000×g, 5 min), washed, and resuspended in HHBS. […] After 30 min, the cells were irradiated and processed as described for the time-kill experiments.

In the case of `NC[C@H]1O[C@H](O[C@H]2[C@H](O)[C@@H](O[C@H]3O[C@H](CO)[C@@H](O)[C@H](N)[C@H]3O)[C@H](N)C[C@@H]2N)[C@H](N)C[C@@H]1O` [Tobramycin], the minimal inhibitory concentration (MIC) with S. aureus [1] turned out to be 4 mg/L (≈ 8.56 µM). For the same compound, the “mortality after 7 days” value in the experiment with S. aureus [2] is recorded as 33%. Also, in experiment [3], the “reduction in total bacterial cell number in biofilm” value is given as “up to 43%”. For the same compound, the “reduction in metabolically active cells in biofilm” value in experiment [4] is reported as 27%.

As to Polymyxin B [reference compound], the “mortality after 7 days” value with A. baumannii [5] is 69%. Moreover, the “Antibiotic MIC” value with A. baumannii [6] came out at 0.125 μg per mL.

For `Cc1cc(C2CCCCC2)n(O)c(=O)c1` [Ciclopirox (CPX), Ciclopirox], the minimal inhibitory concentration (MIC) was determined as 1 mg/L in the experiment with C. albicans [7] and 0.5 mg/L in the experiment with T. rubrum.

In the case of `CC(=O)OCOC(=O)CN(CC(=O)OCOC(C)=O)c1ccccc1OCCOc1ccccc1N(CC(=O)OCOC(C)=O)CC(=O)OCOC(C)=O` [BAPTA-AM, 1,2-bis(2-aminophenoxy) ethane-N,N,N′,N′-tetraacetic acid acetoxymethyl ester], in the experiment on C. albicans [8], the “effect of calcium chelator on MM-induced cell death” value was “Mitigation of MM-induced cell death”.
